Earlier results as cited in paper PMC6270655, “Mixed Antimony(V) Complexes with Different Sugars to Modulate the Oral Bioavailability of Pentavalent Antimonial Drugs” (Molecules, 2014).

Set-up: method as in PMID 22573856

Q: Which half-life does the source give for `CCCCCCCCCCCCCCCCOP(=O)([O-])OCC[N+](C)(C)C` [miltefosine, hexadecylphosphocholine] here?
A: ~ 150 h
